Data as given in patent US10071981B2, “Method of priming plants against abiotic stress factors” (Research Foundation of The City University of New York, priority 2014, dated 2018).

Key:
Type in all cases: in vivo
[1] = test system: Medicago truncatula plants; assay: Lipid peroxidation (leaf MDA/TBARS content) in drought-stressed plants; conditions: for leaf MDA content (lipid peroxidation): diluted in 70% (v/v) MetOH, FIG. 1
From the text: Cellular damage in leaves can be measured by determining lipid peroxidation (Malondialdehyde [MDA] content) and hydrogen peroxide (H2O2) levels. Lipid peroxidation is a widely used stress indicator of plant membranes. For example, the method described by Heath and Packer is the basic protocol used or adapted in numerous studies dealing with lipid peroxidation. See Heath R L, Packer L. 1968, Photoperoxidation in isolated chloroplasts. I. Kinetics and stoichiometry of fatty acid peroxidation. Archives in Biochemistry and Biophysics 125, 189-198. Measuring hydrogen peroxide levels is also well known in the art.
(§1) Mature (40 d) Medicago truncatula ecotype Jemalong A17 plants were used for the purposes of this study. These were grown in soil medium under controlled, optimal growth conditions and were then subjected to drought stress. Drought was imposed by withholding watering for 9 d (for detailed growth and stress conditions see Filippou et al., 2011). Both NOSH and NOSH-aspirin were applied at 100 μM concentration by foliar spraying at the start of stress imposition. The hybrid donors were diluted in 70% (v/v) and 30% (v/v) methanol, 20% (v/v) acetone or 20% (v/v) DMSO. Cellular damage was evaluated by lipid peroxidation levels (TBARS content) and hydrogen peroxide (H2O2) content as previously described (Filippou et al., 2011; Tanou et al., 2012), while osmoprotective capacity was evaluated by proline content (ninhydrin assay) as previously described (Antoniou et al., 2013). Real-time RT-PCR gene expression analysis was carried out using a Biorad IQ5 thermocycler as previously described (Filippou et al., 2013b). Relative quantification of gene expression and statistical analysis of all qRT-PCR data (pairwise fixed reallocation randomization test) were performed using the REST software according to Pfaffl et al. (2002). The actin 11 gene was used as a housekeeping reference gene. All analyses were carried out using three independent biological pools of samples as replicates (with a minimum of three independent plants per pooled sample).
An examination of cellular damage levels was performed by means of spectrophotometric determination of lipid peroxidation.

[2] = test system: Medicago truncatula plants; assay: Proline content (ninhydrin assay) in leaves of drought-stressed plants; conditions: 100 μM, 30% (v/v) MetOH; vs drought-stressed alone samples; FIG. 6
Method: Mature (40 d) Medicago truncatula ecotype Jemalong A17 plants were used for the purposes of this study. These were grown in soil medium under controlled, optimal growth conditions and were then subjected to drought stress. Drought was imposed by withholding watering for 9 d (for detailed growth and stress conditions see Filippou et al., 2011). Both NOSH and NOSH-aspirin were applied at 100 μM concentration by foliar spraying at the start of stress imposition. The hybrid donors were diluted in 70% (v/v) and 30% (v/v) methanol, 20% (v/v) acetone or 20% (v/v) DMSO. Cellular damage was evaluated by lipid peroxidation levels (TBARS content) and hydrogen peroxide (H2O2) content as previously described (Filippou et al., 2011; Tanou et al., 2012), while osmoprotective capacity was evaluated by proline content (ninhydrin assay) as previously described (Antoniou et al., 2013). […] Relative quantification of gene expression and statistical analysis of all qRT-PCR data (pairwise fixed reallocation randomization test) were performed using the REST software according to Pfaffl et al. (2002). […] In addition, proline content was evaluated as proline is a major osmoprotective molecule involved in the defense response of plants to abiotic stress conditions (Filippou et al., 2013b).

[3] = test system: Medicago truncatula plants; assay: Hydrogen peroxide content in leaves of drought-stressed plants; conditions: 100 μM foliar spraying
Method: as §1, with “All analyses were carried out using three independent biological pools of samples as replicates (with a minimum of three independent plants per pooled sample).” left out

[4] = test system: Medicago truncatula plants; assay: Real-time RT-PCR gene expression in leaves of drought-stressed plants; conditions: pre-treated and stressed vs stressed alone plants; 30% MetOH; FIG. 7
[5] = 100 μM foliar spraying, drought 9 d

Row | SMILES | leaf MDA content (lipid peroxidation) [1, 5] | proline content [2] | H2O2 levels ([3]; 30% (v/v) MetOH, vs drought-stress samples, FIG. 5) | H2O2 content ([3]; 70% (v/v) MetOH, drought 9 d, FIG. 4) | FeSOD relative gene expression [4] | P5CR relative gene expression [4] | P5CS relative gene expression [4] | cAPX relative gene expression [4] | lipid peroxidation levels (leaf MDA content) ([1]; 100 μM foliar spraying, 30% (v/v) MetOH, drought 9 d, vs drought-stressed control, FIG. 2) | lipid peroxidation levels ([1]; 100 μM, solvent 20% DMSO or 20% acetone (solvent itself toxic))
1 | O=C(CCCO[N+](=O)[O-])Oc1ccc(-c2cc(=S)ss2)cc1 [NOSH] | lowered |  |  |  |  |  |  |  |  | 
2 | O=C(CCCO[N+](=O)[O-])Oc1ccccc1C(=O)Oc1ccc(-c2cc(=S)ss2)cc1 [NOSH-A] | statistically significant protection | increased proline content | significantly lower H2O2 levels | significantly reversed | significant induction | significant induction | significant induction | significant suppression | significantly lower lipid peroxidation levels | lower lipid peroxidation levels
